Results published in patent US20100056524A1, “Compound” (priority 2008, published 2010).
Where a name gives a salt, the structure may show the parent alone.

biological target: T1, TBK1 (Homo sapiens, UniProt Q9UHD2); assay: TBK1 protein kinase assay ([γ-33P]ATP, P81 filterplates); type: biochemical; settings: 50 μM ATP; read-out: Potency (TBK1 IC50 potency score)
T1 construct: All protein kinases were of human origin and encoded full length proteins, unless indicated otherwise; His6; made in house; host or cells: insect Sf21 cells
T1 sequence (Q9UHD2 1-729): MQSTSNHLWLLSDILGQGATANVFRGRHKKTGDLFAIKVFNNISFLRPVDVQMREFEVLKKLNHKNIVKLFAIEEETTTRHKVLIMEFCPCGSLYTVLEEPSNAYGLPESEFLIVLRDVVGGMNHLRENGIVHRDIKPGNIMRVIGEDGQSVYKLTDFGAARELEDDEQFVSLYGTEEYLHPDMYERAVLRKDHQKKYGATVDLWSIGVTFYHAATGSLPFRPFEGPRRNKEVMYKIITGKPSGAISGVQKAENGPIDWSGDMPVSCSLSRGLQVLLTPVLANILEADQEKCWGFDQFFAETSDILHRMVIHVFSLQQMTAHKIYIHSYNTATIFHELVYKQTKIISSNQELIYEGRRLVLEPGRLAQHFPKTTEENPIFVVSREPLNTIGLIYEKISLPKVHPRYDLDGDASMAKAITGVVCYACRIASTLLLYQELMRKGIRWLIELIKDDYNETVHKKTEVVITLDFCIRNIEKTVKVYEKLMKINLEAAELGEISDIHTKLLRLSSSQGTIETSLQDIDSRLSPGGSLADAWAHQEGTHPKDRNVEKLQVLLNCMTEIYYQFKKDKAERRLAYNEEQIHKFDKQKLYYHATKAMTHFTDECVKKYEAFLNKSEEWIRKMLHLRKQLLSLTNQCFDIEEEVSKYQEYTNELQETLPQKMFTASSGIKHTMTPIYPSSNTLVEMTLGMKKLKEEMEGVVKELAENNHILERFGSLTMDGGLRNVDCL
Outline: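 Human TBK1 assayed for 30 min with peptide substrate (300 μM), 50 μM [γ-33P]ATP and 10 mM magnesium acetate in 50 mM Tris/HCl pH 7.5, 0.1 mM EGTA, 0.1% 2-mercaptoethanol. Stopped with orthophosphoric acid and counted on P81 filters. IC50 from 10 compound concentrations.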

SMILES | IC50 [nM]
O=C(NCCCNc1nc(Nc2ccc(-c3cn[nH]c3)nc2)ncc1C1CC1)C1CCC1 [Example 118, Cyclobutanecarboxylic acid (3-{5-cyclopropyl-2-[6-(1H-pyrazol-4-yl)-pyridin-3-ylamino]-pyrimidin-4-ylamino}-propyl)-amide] | < 100
O=C(NCCCNc1nc(Nc2ccc(-c3ccncc3)nc2)ncc1C1CC1)C1CCC1 [Example 119, Cyclobutanecarboxylic acid {3-[2-([2,4′]bipyridinyl-5-ylamino)-5-cyclopropyl-pyrimidin-4-ylamino]-propyl}-amide] | < 100
O=C(NCCCNc1nc(Nc2ccc(-c3cccnc3)nc2)ncc1C1CC1)C1CCC1 [Example 120, Cyclobutanecarboxylic acid {3-[2-([2,3′]bipyridinyl-5-ylamino)-5-cyclopropyl-pyrimidin-4-ylamino]-propyl}-amide] | < 100
O=C(NCCCNc1nc(Nc2cccc(-c3ccncc3)c2)ncc1C1CC1)C1CCC1 [Example 121, Cyclobutanecarboxylic acid {3-[5-cyclopropyl-2-(3-pyridin-4-yl-phenylamino)-pyrimidin-4-ylamino]-propyl}-amide] | < 100
CN1CCN(Cc2cccc(Nc3ncc(C4CC4)c(NCCCNC(=O)C4CCC4)n3)c2)CC1 [Example 122, Cyclobutanecarboxylic acid (3-{5-cyclopropyl-2-[3-(4-methyl-piperazin-1-ylmethyl)-phenylamino]-pyrimidin-4-ylamino}-propyl)-amide] | < 100
CC(c1cccc(Nc2ncc(C3CC3)c(NCCCNC(=O)C3CCC3)n2)c1)N1CCOCC1 (stereo not shown) [Example 123, Cyclobutanecarboxylic acid (3-{5-cyclopropyl-2-[3-(1-morpholin-4-yl-ethyl)-phenylamino]-pyrimidin-4-ylamino}-propyl)-amide] | < 100
O=C(NCCCNc1nc(Nc2cccc(C(=O)N3CCCC3)c2)ncc1C1CC1)C1CCC1 [Example 124, Cyclobutanecarboxylic acid (3-{5-cyclopropyl-2-[3-(pyrrolidine-1-carbonyl)-phenylamino]-pyrimidin-4-ylamino}-propyl)-amide] | < 100
CN(C)[C@H]1CCN(C(=O)c2cccc(Nc3ncc(C4CC4)c(NCCCNC(=O)C4CCC4)n3)c2)C1 [Example 125, Cyclobutanecarboxylic acid (3-{5-cyclopropyl-2-[3-((S)-3-dimethylamino-pyrrolidine-1-carbonyl)-phenylamino]-pyrimidin-4-ylamino}-propyl)-amide] | < 100
CN(C)[C@@H]1CCN(C(=O)c2cccc(Nc3ncc(C4CC4)c(NCCCNC(=O)C4CCC4)n3)c2)C1 [Example 126, Cyclobutanecarboxylic acid (3-{5-cyclopropyl-2-[3-((R)-3-dimethylamino-pyrrolidine-1-carbonyl)-phenylamino]-pyrimidin-4-ylamino}-propyl)-amide] | < 100
CN1CCN(C(=O)Cc2cccc(Nc3ncc(C4CC4)c(NCCCNC(=O)C4CCC4)n3)c2)CC1 [Example 127, Cyclobutanecarboxylic acid [3-(5-cyclopropyl-2-{3-[2-(4-methyl-piperazin-1-yl)-2-oxo-ethyl]-phenylamino}-pyrimidin-4-ylamino)-propyl]-amide] | < 100
CN(C)C1CCN(C(=O)Cc2cccc(Nc3ncc(C4CC4)c(NCCCNC(=O)C4CCC4)n3)c2)CC1 [Example 128, Cyclobutanecarboxylic acid [3-(5-cyclopropyl-2-{3-[2-(4-dimethylamino-piperidin-1-yl)-2-oxo-ethyl]-phenylamino}-pyrimidin-4-ylamino)-propyl]-amide] | < 100
O=C(NCCCNc1nc(Nc2ccc3cn[nH]c3c2)ncc1C1CC1)C1CCC1 [Example 129, Cyclobutanecarboxylic acid {3-[5-cyclopropyl-2-(1H-indazol-6-ylamino)-pyrimidin-4-ylamino]-propyl}-amide. Hydrochloride] | < 100
O=C(NCCCNc1nc(Nc2ccc3[nH]ncc3c2)ncc1C1CC1)C1CCC1 [Example 130, Cyclobutanecarboxylic acid {3-[5-cyclopropyl-2-(1H-indazol-5-ylamino)-pyrimidin-4-ylamino]-propyl}-amide] | < 100
O=C(NCCCNc1nc(Nc2cccc(CN3CCCC3)c2)ncc1C1CC1)C1CCC1 [Example 131, Cyclobutanecarboxylic acid {3-[5-cyclopropyl-2-(3-pyrrolidin-1-ylmethyl-phenylamino)-pyrimidin-4-ylamino]-propyl}-amide] | < 100
CN(Cc1cccc(Nc2ncc(C3CC3)c(NCCCNC(=O)C3CCC3)n2)c1)C1CCCC1 [Example 132, Cyclobutanecarboxylic acid [3-(2-{3-[(cyclopentyl-methyl-amino)-methyl]-phenylamino}-5-cyclopropyl-pyrimidin-4-ylamino)-propyl]-amide] | < 100
CC(C)CN(C)Cc1cccc(Nc2ncc(C3CC3)c(NCCCNC(=O)C3CCC3)n2)c1 [Example 133, Cyclobutanecarboxylic acid [3-(5-cyclopropyl-2-{3-[(isobutyl-methyl-amino)-methyl]-phenylamino}-pyrimidin-4-ylamino)-propyl]-amide] | < 100
O=C(NCCCNc1nc(Nc2cccc(CN3CCCCC3)c2)ncc1C1CC1)C1CCC1 [Example 134, Cyclobulanecarboxylic acid {3-[5-cyclopropyl-2-(3-piperidin-1-ylmethyl-phenylamino)-pyrimidin-4-ylamino]-propyl}-amide] | < 100
O=C(NCCCNc1nc(Nc2cccc(CN3CCC(F)(F)CC3)c2)ncc1C1CC1)C1CCC1 [Example 135, Cyclobutanecarboxylic acid (3-{5-cyclopropyl-2-[3-(4,4-difluoro-piperidin-1-ylmethyl)-phenylamino]-pyrimidin-4-ylamino}-propyl)-amide] | < 100
N#CCc1cccc(Nc2ncc(C3CC3)c(NCCCNC(=O)C3CCC3)n2)c1 [Example 136, Cyclobutanecarboxylic acid {3-[2-(3-cyanomethyl-phenylamino)-5-cyclopropyl-pyrimidin-4-ylamino]-propyl}-amide] | < 100
Cn1ncc2cc(Nc3ncc(C4CC4)c(NCCCNC(=O)C4CCC4)n3)ccc21 [Example 137, Cyclobutanecarboxylic acid {3-[5-cyclopropyl-2-(1-methyl-1H-indazol-5-ylamino)-pyrimidin-4-ylamino]-propyl}-amide] | < 100
Cn1cc2ccc(Nc3ncc(C4CC4)c(NCCCNC(=O)C4CCC4)n3)cc2n1 [Example 138, Cyclobutanecarboxylic acid {3-[5-cyclopropyl-2-(2-methyl-2H-indazol-6-ylamino)-pyrimidin-4-ylamino]-propyl}-amide] | < 100
Cn1ncc2ccc(Nc3ncc(C4CC4)c(NCCCNC(=O)C4CCC4)n3)cc21 [Example 139, Cyclobutanecarboxylic acid {3-[5-cyclopropyl-2-(1-methyl-1H-indazol-6-ylamino)-pyrimidin-4-ylamino]-propyl}-amide] | < 100
O=C(NCCCNc1nc(Nc2cccc(N3CCNC3=O)c2)ncc1C1CC1)C1CCC1 [Example 140, Cyclobutanecarboxylic acid (3-{5-cyclopropyl-2-[3-(2-oxo-imidazolidin-1-yl)-phenylamino]-pyrimidin-4-ylamino}-propyl)-amide] | < 100
O=C(NCCCNc1nc(Nc2cccc(Br)c2)ncc1C1CC1)C1CCC1 [Example 141, Cyclobutanecarboxylic acid {3-[2-(3-bromo-phenylamino)-5-cyclopropyl-pyrimidin-4-ylamino]-propyl}-amide] | < 100
O=C(NCCCNc1nc(Nc2cccc(C(=O)N3CCNCC3)c2)ncc1C1CC1)C1CCC1 [Example 142, Cyclobutanecarboxylic acid (3-{5-cyclopropyl-2-[3-(piperazine-1-carbonyl)-phenylamino]-pyrimidin-4-ylamino}-propyl)-amide. Hydrochloride] | < 100
O=C(NCCCNc1nc(Nc2cccc(OCCN3CCOCC3)c2)ncc1C1CC1)C1CCC1 [Example 143, Cyclobutanecarboxylic acid (3-{5-cyclopropyl-2-[3-(2-morpholin-4-yl-ethoxy)-phenylamino]-pyrimidin-4-ylamino}-propyl)-amide] | < 100
O=C(NCCCNc1nc(Nc2cccc(NC(=O)N3CCCC3)c2)ncc1C1CC1)C1CCC1 [Example 144, Pyrrolidine-1-carboxylic acid (3-{4-[3-(cyclobutanecarbonyl-amino)-propylamino]-5-cyclopropyl-pyrimidin-2-ylamino}-phenyl)-amide] | < 100
CC(C)(c1cccc(Nc2ncc(C3CC3)c(NCCCNC(=O)C3CCC3)n2)c1)N1CCOCC1 [Example 145, Cyclobutanecarboxylic acid (3-{5-cyclopropyl-2-[3-(1-methyl-1-morpholin-4-yl-ethyl)-phenylamino]-pyrimidin-4-ylamino}-propyl)-amide] | < 100
